The record followed here is PubChem BioAssay (NCI).

Among the test systems are OVCAR-3 ovarian; NCI/ADR-RES ovarian; SF-295 CNS; MDA-MB-435; SF-539 CNS; SK-MEL-2 melanoma; SNB-19 CNS; 786-0 renal; SK-OV-3 ovarian; OVCAR-4 ovarian; COLO 205 colon; A549 NSCLC; SNB-75 CNS; ACHN renal; SF-268 CNS; NCI-H226 lung; NCI-H23 lung; OVCAR-8 ovarian; HT29 colon; T-47D breast.
Assay in all cases: NCI-60 cell line screen, 48 h

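Five compound concentrations were applied to cells in 96-well plates for 48 hours; endpoints were derived by simple linear interpolation of the resulting dose-response curve. TGI denotes the concentration required for complete inhibition of growth.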

With `Clc1cccc(Cl)c1C=NC12CC3CC(CC(C3)C1)C2`, the TGI with OVCAR-3 ovarian, in the test with NCI/ADR-RES ovarian, in the test with SF-295 CNS, in the test with MDA-MB-435, in the test on SF-539 CNS and in the test with SK-MEL-2 melanoma was more than 10 µM in each case. The TGI in the test on SNB-19 CNS, with 786-0 renal, in the test with SK-OV-3 ovarian, in the test with OVCAR-4 ovarian, in the test with COLO 205 colon and with A549 NSCLC was more than 10 µM throughout. The TGI with SNB-75 CNS, in the test with ACHN renal, with SF-268 CNS, in the test on NCI-H226 lung, in the test on NCI-H23 lung and with OVCAR-8 ovarian was more than 10 µM throughout. Further, the TGI with HT29 colon and in the test on T-47D breast was more than 10 µM in each case.
For the compound `CCOC(=O)/C(O)=C(/C=N\C(=S)Nc1ccccc1Cl)C(=O)OCC`, the TGI in the test on OVCAR-3 ovarian, in the test with NCI/ADR-RES ovarian, in the test with SF-295 CNS, with MDA-MB-435, with SF-539 CNS and in the test with SK-MEL-2 melanoma was more than 100 µM throughout. Moreover, the TGI in the test with SNB-19 CNS, in the test on 786-0 renal, with SK-OV-3 ovarian, in the test on OVCAR-4 ovarian, in the test on COLO 205 colon and with A549 NSCLC was more than 100 µM in each case. The TGI with SNB-75 CNS, in the test with ACHN renal, with SF-268 CNS, in the test with NCI-H226 lung, in the test on NCI-H23 lung and with OVCAR-8 ovarian was more than 100 µM each time. Further, the TGI in the test with HT29 colon and with T-47D breast was more than 100 µM throughout.
For `Cc1nc2sc(CCl)nn2c(=O)c1Cl`, the TGI in the test with OVCAR-3 ovarian was found to be 29.5 µM; in the test on NCI/ADR-RES ovarian, 50.8 µM; in the test on SF-295 CNS, 31.1 µM; in the test with MDA-MB-435 it was 18.3 µM; in the test with SF-539 CNS it was 31.3 µM; in the test on SK-MEL-2 melanoma, 27.7 µM. Moreover, the TGI was determined as 32.3 µM with SNB-19 CNS; 22.4 µM in the test on 786-0 renal; 28.1 µM with SK-OV-3 ovarian; 29.7 µM in the test on OVCAR-4 ovarian; 32.2 µM in the test on COLO 205 colon; 29.6 µM with A549 NSCLC. Also, the TGI with SNB-75 CNS turned out to be 24.7 µM; in the test with ACHN renal, 29.3 µM; in the test on SF-268 CNS, 33.4 µM; with NCI-H226 lung it was 31.8 µM; in the test on NCI-H23 lung it was 33.3 µM; in the test on OVCAR-8 ovarian, 31.4 µM. The TGI with HT29 colon turned out to be 26.2 µM; in the test on T-47D breast, 28.3 µM.
